“And” between values parts separate entries of the source, which are not always exact repeats. Equal values may be shown once. Read-outs that look alike come from different tables or passages of the source.
Key:
Format in all cases: cell-based
[1] = target: T1, OR2M3 T105A (Homo sapiens, UniProt Q8NG83, T105A); experiment: GloSensor assay, OR2M3 T105A
T1 construct: 39aa rho-tag; expressed in transfected cells; host or cells: NxG 108CC15 or HEK-293 cells
Description: (§1) All receptor variants used were generated by PCR-based site-directed mutagenesis in two steps. Gene-specific primers (mutation primers) were used according to Table S2 and Table S3. The mutation primers, which carried the changed nucleotides, were designed overlapping.
(§2) The assay was performed as reported above.
(§3) All data are presented as mean ± SD.

[2] = target: T2, OR2M3 Y104C (Homo sapiens, UniProt Q8NG83, Y104C); experiment: GloSensor assay, OR2M3 Y104C; details: OR2M3 Y104C (SNP haplotype)
T2 construct: full-length gene-specific forward and reverse primers were added; 39aa rho-tag; expressed in transfected cells; host or cells: NxG 108CC15 or HEK-293 cells
Description: as §1, §3
(§4) (a) Schematic snake diagram with localization of mutated amino acid positions within OR2M3, which have been chosen because of their close vicinity to putative interaction sites with odorants as proposed by Man et al. (red circles). Effects of 3-mercapto-2-methylpentan-1-ol on OR2M3 variants (black curves) with SNP-defined single amino acid changes at positions 104^3.32 (b), 206^5.45 (c), and 207^5.46 (d). Note that the same data set for 3-mercapto-2-methylpentan-1-ol on OR2M3 wt (grey, see also Fig. 1b, d) is given in panels (b)-(d) for didactic reasons. […] RLU = relative luminescence unit. 3MMP = 3-mercapto-2-methylpentan-1-ol.

[3] = target: T3, OR2M3 H244A (Homo sapiens, UniProt Q8NG83, H244A); experiment: GloSensor assay, OR2M3 H244A; details: OR2M3 His244 to alanine; in the absence or presence of Cu^2+
T3 construct: 39aa rho-tag; expressed in transfected cells; host or cells: NxG 108CC15 or HEK-293 cells
Description: as §1, §2, §3

[4] = target: T4, OR2M3 C202S (Homo sapiens, UniProt Q8NG83, C202S); experiment: GloSensor assay, OR2M3 C202S; details: even in the presence of Cu^2+, agonist 20 µmol/L
T4 construct: full-length gene-specific forward and reverse primers were added; 39aa rho-tag; expressed in transfected cells; host or cells: NxG 108CC15 or HEK-293 cells
Description: as §1, §2, §3

[5] = target: T5, OR2M3 C112A (Homo sapiens, UniProt Q8NG83, C112A); experiment: GloSensor assay, OR2M3 C112A
T5 construct: 39aa rho-tag; expressed in transfected cells; host or cells: NxG 108CC15 or HEK-293 cells
Description: as §1, §2, §3

[6] = target: T6, OR2M3 C241A (Homo sapiens, UniProt Q8NG83, C241A); experiment: GloSensor assay, OR2M3 C241A; details: OR2M3 Cys241 to alanine; in the absence or presence of Cu^2+
T6 construct: 39aa rho-tag; expressed in transfected cells; host or cells: NxG 108CC15 or HEK-293 cells
Description: as §1, §2, §3

[7] = target: T7, OR2M3 C203S (Homo sapiens, UniProt Q8NG83, C203S); experiment: GloSensor assay, OR2M3 C203S; details: 10 µmol/L Cu^2+, read-out: EC50 in the presence of Cu^2+
T7 construct: 39aa rho-tag; expressed in transfected cells; host or cells: NxG 108CC15 or HEK-293 cells
Description: as §1, §2, §3

[8] = target: T8, OR2M3 C202A (Homo sapiens, UniProt Q8NG83, C202A); experiment: GloSensor assay, OR2M3 C202A; details: even in the presence of Cu^2+, agonist 20 µmol/L
T8 construct: 39aa rho-tag; expressed in transfected cells; host or cells: NxG 108CC15 or HEK-293 cells
Description: as §1, §2, §3

[9] = target: T9, OR2M3 C112S (Homo sapiens, UniProt Q8NG83, C112S); experiment: GloSensor assay, OR2M3 C112S; details: presence of copper 10 µmol/L, agonist 20 µmol/L
T9 construct: 39aa rho-tag; expressed in transfected cells; host or cells: NxG 108CC15 or HEK-293 cells
Description: as §1, §2, §3

[10] = target: T10, OR2M3 I207L (Homo sapiens, UniProt Q8NG83, I207L); experiment: GloSensor assay, OR2M3 I207L; details: OR2M3 I207L (SNP haplotype)
T10 construct: full-length gene-specific forward and reverse primers were added; 39aa rho-tag; expressed in transfected cells; host or cells: NxG 108CC15 or HEK-293 cells
Description: as §1, §3, §4

[11] = target: T11, OR2M3 wt (Homo sapiens, UniProt Q8NG83); experiment: cAMP-luminescence GloSensor assay, recombinant OR2M3 wt; details: OR2M3 wt
T11 construct: full-length gene-specific forward and reverse primers were added; 39aa rho-tag; expressed in transfected cells; host or cells: NxG 108CC15 or HEK-293 cells
T11 sequence (Q8NG83 1-312): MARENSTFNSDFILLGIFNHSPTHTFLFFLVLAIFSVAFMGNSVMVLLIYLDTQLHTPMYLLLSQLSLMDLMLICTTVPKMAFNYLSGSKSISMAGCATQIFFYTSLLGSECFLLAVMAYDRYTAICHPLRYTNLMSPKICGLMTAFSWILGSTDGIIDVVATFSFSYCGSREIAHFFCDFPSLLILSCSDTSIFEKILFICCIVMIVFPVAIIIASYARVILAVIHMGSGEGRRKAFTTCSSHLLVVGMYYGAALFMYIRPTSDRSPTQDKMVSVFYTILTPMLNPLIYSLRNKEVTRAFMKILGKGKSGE
Description: as §2, §3

[12] = target: T12, OR2M3 C203A (Homo sapiens, UniProt Q8NG83, C203A); experiment: GloSensor assay, OR2M3 C203A; details: even in the presence of Cu^2+, agonist 20 µmol/L
T12 construct: 39aa rho-tag; expressed in transfected cells; host or cells: NxG 108CC15 or HEK-293 cells
Description: as §1, §2, §3

[13] = target: T13, OR2M3 C203Y (Homo sapiens, UniProt Q8NG83, C203Y); experiment: GloSensor assay, OR2M3 C203Y; details: in the absence or presence of Cu^2+
T13 construct: full-length gene-specific forward and reverse primers were added; 39aa rho-tag; expressed in transfected cells; host or cells: NxG 108CC15 or HEK-293 cells
Description: as §1, §2, §3

[14] = target: T14, OR2M3 M206I (Homo sapiens, UniProt Q8NG83, M206I); experiment: GloSensor assay, OR2M3 M206I; details: OR2M3 M206I (SNP haplotype)
T14 construct: 39aa rho-tag; expressed in transfected cells; host or cells: NxG 108CC15 or HEK-293 cells
Description: as §1, §3, §4

[15] = 10 µmol/L Cu^2+, read-out: EC50 in the presence of Cu^2+
[16] = presence of copper 10 µmol/L, agonist 20 µmol/L

T1 sequence (Q8NG83 whole entry T105A): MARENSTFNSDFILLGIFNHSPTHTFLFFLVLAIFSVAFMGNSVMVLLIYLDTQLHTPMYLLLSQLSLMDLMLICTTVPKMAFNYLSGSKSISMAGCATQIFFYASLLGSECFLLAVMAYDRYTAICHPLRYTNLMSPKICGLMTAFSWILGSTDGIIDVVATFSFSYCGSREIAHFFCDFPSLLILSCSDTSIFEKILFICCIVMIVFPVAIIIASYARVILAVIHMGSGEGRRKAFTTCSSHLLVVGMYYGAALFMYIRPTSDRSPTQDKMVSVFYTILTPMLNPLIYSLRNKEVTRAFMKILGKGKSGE
T5 sequence (Q8NG83 whole entry C112A): as the sequence (Q8NG83 whole entry T105A) above, with A105T, C112A counted along it
T6 sequence (Q8NG83 whole entry C241A): as the sequence (Q8NG83 whole entry T105A) above, with A105T, C241A counted along it
T13 sequence (Q8NG83 whole entry C203Y): as the sequence (Q8NG83 whole entry T105A) above, with A105T, C203Y counted along it
T9 sequence (Q8NG83 whole entry C112S): as the sequence (Q8NG83 whole entry T105A) above, with A105T, C112S counted along it
T4 sequence (Q8NG83 whole entry C202S): as the sequence (Q8NG83 whole entry T105A) above, with A105T, C202S counted along it
T8 sequence (Q8NG83 whole entry C202A): as the sequence (Q8NG83 whole entry T105A) above, with A105T, C202A counted along it
T3 sequence (Q8NG83 whole entry H244A): as the sequence (Q8NG83 whole entry T105A) above, with A105T, H244A counted along it
T2 sequence (Q8NG83 whole entry Y104C): as the sequence (Q8NG83 whole entry T105A) above, with Y104C, A105T counted along it
T10 sequence (Q8NG83 whole entry I207L): as the sequence (Q8NG83 whole entry T105A) above, with A105T, I207L counted along it
T14 sequence (Q8NG83 whole entry M206I): as the sequence (Q8NG83 whole entry T105A) above, with A105T, M206I counted along it
T7 sequence (Q8NG83 whole entry C203S): as the sequence (Q8NG83 whole entry T105A) above, with A105T, C203S counted along it
T12 sequence (Q8NG83 whole entry C203A): as the sequence (Q8NG83 whole entry T105A) above, with A105T, C203A counted along it

SMILES: CCC(S)C(C)CO (stereo not shown) [3-Mercapto-2-methylpentan-1-ol, 3-mercapto-2-methylpentan-1-ol]
- EC50 [1, 15]: 750 ± 270 nM
- agonist function in mutant receptor [1, 16]: rescued
- EC50 [2]: 1020 ± 180 nM
- agonist function in mutant receptor [3]: not functional anymore
- agonist function in mutant receptor [4]: complete loss-of-function
- EC50 [5, 15]: 860 ± 4 nM
- agonist function in mutant receptor [5, 16]: rescued
- agonist function in mutant receptor [6]: not functional anymore
- EC50 [7]: 3160 ± 10 nM
- agonist function in mutant receptor [8]: complete loss-of-function
- agonist function in mutant receptor [9]: rescued
- EC50 [10]: 1410 ± 40 nM
- EC50 ([11]; 10 µmol/L Cu^2+, mean ± SD (n = 3–5), read-out: EC50 in the presence of Cu^2+): 290 ± 100 nM
- Relative amplitude ([11]; 30 µmol/L AgAc, normalized to wt signal without Cu^2+): 5.72 ± 0.42
- EC50 ([11]; 30 µmol/L AgAc, read-out: EC50): 870 ± 500 nM
- Relative amplitude ([11]; 30 µmol/L AgNO3, normalized to wt signal without Cu^2+): 6.41 ± 1.17
- EC50 ([11]; 30 µmol/L AgNO3, read-out: EC50): 1490 ± 360 nM
- EC50 ([11]; 30 µmol/L CoCl2, read-out: EC50): 730 ± 260 nM
- EC50 ([11]; 30 µmol/L CuCl2 + copper chelator TEPA, read-out: EC50): 1130 ± 360 nM
- EC50 ([11]; 30 µmol/L FeCl3, read-out: EC50): 1670 ± 340 nM
- EC50 ([11]; 30 µmol/L NiCl2, read-out: EC50): 1090 ± 630 nM
- Relative amplitude ([11]; 30 µmol/L ZnSO4, n.d. = no detectable response up to 60 µmol/L): complete loss-of-function
- Relative amplitude ([11]; 30 µmol/L colloidal Ag, normalized to wt signal without Cu^2+): 3.52 ± 0.69
- EC50 ([11]; 30 µmol/L colloidal Ag, read-out: EC50): 760 ± 350 nM
- Hill coefficient ([11]; absence of copper (n = 4)): 0.89 ± 0.41
- Relative amplitude ([11]; copper concentration 60 µmol, normalized to wt signal without Cu^2+): 1.42 ± 0.64
- EC50 ([11]; copper concentration 60 µmol, read-out: EC50): 1470 ± 120 nM
- Relative amplitude ([11]; copper concentration 100 µmol, normalized to wt signal without Cu^2+): 0.73 ± 0.48
- EC50 ([11]; copper concentration 100 µmol, read-out: EC50): 1950 ± 300 nM
- EC50 ([11]; no metal supplementation (w/o), mean ± SD (n = 3–5), read-out: EC50 in the absence of Cu^2+): 450 ± 190 nM
- EC50 ([11]; presence of 30 µmol/L CuCl2, read-out: EC50): 550 ± 10 nM
- Hill coefficient ([11]; presence of copper (10 µmol/L) (n = 4)): 1.9 and 1.93 ± 0.71 and ~2
- increase in amplitude ([11]; supplementation with ionic or colloidal silver, 30 µmol/L): three-to-sixfold increase in amplitude
- Relative amplitude ([11]; w/o metal, normalized to OR2M3 wt signal with 3-mercapto-2-methylpentan-1-ol (20 µmol/L) in the absence of Cu^2+ (reference)): 1
- agonist function in mutant receptor [12]: complete loss-of-function
- agonist function in mutant receptor [13]: complete loss-of-function
- receptor function (response to agonist) [14]: complete loss-of-function
